From US7915297B2, “Isoxazole derivatives and use thereof” (SK Holdings Co., Ltd., priority 2005, dated 2011)

Assays:
[1] = test system: ST-2, a murine bone marrow stromal T cell; experiment: Differentiation of ST2 cell line into osteoblasts, alkaline phosphatase activity; type: cell-based; conditions: Mus musculus, 96 h; ST-2 cells, 11 μM compound, 4 days; control treated only with ascorbic acid and β-glycerolphosphate = 100; read-out: ALP Activity (% Control)
Experimental: The derivatives synthesized according to the present invention were assayed for their ability to differentiate stem cells into osteoblasts. In this regard, ST-2, a murine bone marrow stromal T cell, was used to measure the activity of bone-specific alkaline phosphatase, a marker of early-stage osteoblast differentiation. In detail, the cell line was cultured in an MEM supplemented with penicillin-streptomycin (100 Units/mL) and heat-inactivated 5% fetal bovine serum under standard culture conditions (5% CO2, 37° C., 100% relative humidity). […] The suspension was diluted with the same medium to adjust the cell count to 5,000˜10,000 cells per well, and was moved in a 96-well microtiter, subsequently. After being incubated for 24 hrs, the cells were treated in a medium containing 50 μg/ml of ascorbic acid and 5 mM of β-glycerolphosphate with various concentrations of the isoxazole derivatives synthesized in Preparation Examples. During incubation for one to nine days, the Alkaline phosphatase activity was analyzed using a […] Assay kit (Promega, U.S.A.) according to the protocol described in the manual provided by the manufacturer. The activities were measured in cells which had been incubated at 11 μM of each of the compounds for 4 days. Data on the activities of the isoxazole derivatives synthesized are given in Tables 44 to 47 and are expressed as percentages of ALP relative to that measured in the control, which was treated only with ascorbic acid and β-glycerolphosphate. ALP activities according to the concentrations of Derivative (1) are depicted in FIG. 5.

[2] = test system: Wnt/β-catenin signaling (β-catenin activity) in SW480 cell line; experiment: Cell-based Wnt agonist screening, TCF luciferase reporter, SW480 (TCF-FL); set-up: species or system human; conditions: % of LiCl (20 mM); for Emax at 30 µM: Con. 30 μM; for Emax at 120 µM: Con. 120 μM; for Emax at 10 µM: Con. 10 μM
How it was run: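 HEK293 and SW480 lines stably carried a 5X TCF firefly luciferase reporter under G418 selection. Cells (8,000–15,000/well, RPMI 1640 with 5% FBS) were grown 24 h, then treated with compound for 24 h. Luciferase activity was expressed as percent of the 20 mM LiCl positive control.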

[3] = test system: Wnt/β-catenin signaling (β-catenin activity) in HEK293 cell line; experiment: Cell-based Wnt agonist screening, TCF luciferase reporter, HEK293 (TCF-FL); set-up: species or system human; conditions: % of LiCl (20 mM); for Emax at 30 µM: Conc. 30 μM; for Emax at 120 µM: Conc. 120 μM
Description: In order to measure the in vitro activity of compounds of the present invention, two human cancer cell lines, HEK293 and SW480, which have intact Wnt signaling and show APC gene mutation in the Wnt signaling pathway, respectively, were used.
For evaluating the activity of wnt/β-catenin signaling in the cancer cell lines, gene as illustrated in FIG. 1 having β-catenin-binding sites of the Tcf/Lef transcriptional control protein (5 sites of TCF, 5X TCF) and having a fire fly luficerase as a marker protein ascertainable the activity of 5X TCF was introduced into the cells. Treatment with G418 led monoclones of the cell lines, in which the genes were permanently expressed, so as to construct a cell-based Wnt agonist screening system. […] For comparison with the activity of the isoxazole derivatives as Wnt agonists, lithium chloride (LiCl), acting as a positive control for the cell-based Wnt agonist screening system, was used to determine the expression level of the luciferase, and the results are shown in FIG. 3.
The cell lines, in which a cell-based Wnt agonist screening system was constructed, were cultured in RPMI 1640 media supplemented with penicillin-streptomycin (100 Units/mL) and heat-inactivated 5% fetal bovine serum under standard culture conditions (5% CO2, 37° C., 100% relative humidity). […] The suspension was diluted with the same medium to adjust the cell count to 8,000˜15,000 cells per well and was moved then in a 96-well microtiter plate. After being incubated for 24 hrs, the cells were treated with various concentrations of the isoxazole derivatives synthesized in Preparation Examples. Incubation for an additional 24 hours was followed by the quantitative analysis of luciferase activity using a Luciferase Assay kit (Promega, U.S.A.) according to the protocol described in the manual provided by the manufacturer. Data on the activities of the isoxazole derivatives thus synthesized are given in Tables 34 to 43, and are expressed as percentages relative to the activity of the positive control LiCl (20 mM), a well-known agonist of Wnt signaling.

[4] = Homo sapiens, 24 h, read-out: Max. Activity (%)
[5] = Homo sapiens, HEK293, 24 h, 24 h, read-out: Max. Activity (%)

O=C(NCCn1cccn1)c1cc(-c2ccco2)on1 [Derivative (39), 5-furan-2-yl-isoxazole-3-carboxylic acid (2-pyrazol-1-yl-ethyl)-amide]
activity at 11 µM [1]: 190%
Emax at 30 µM [2, 4]: 344%

O=C(NCCn1cnnn1)c1cc(-c2ccco2)on1 [Derivative (43), 5-furan-2-yl-isoxazole-3-carboxylic acid (2-tetrazol-1-yl-ethyl)-amide]
activity at 11 µM [1]: 455%
Emax at 120 µM [2, 4]: 357%

Cc1nccn1CCCNC(=O)c1cc(-c2ccco2)on1 [Derivative (44), 5-furan-2-yl-isoxazole-3-carboxylic acid [3-(2-methyl-imidazol-1-yl)-propyl]-amide]
activity at 11 µM [1]: 997%
Emax at 120 µM [2, 4]: 657%

O=C(NCCCn1cnnn1)c1cc(-c2ccco2)on1 [Derivative (52), 5-furan-2-yl-isoxazole-3-carboxylic acid (3-tetrazol-1-yl-propyl)-amide]
activity at 11 µM [1]: 438%

O=C(NCCCn1ccnc1)c1cc(-c2ccc(O)cc2)on1 [Derivative (107), 5-(4-hydroxy-phenyl)-isoxazole-3-carboxylic acid (3-imidazol-1-yl-propyl)-amide]
Emax at 30 µM [3, 5]: 28%
Emax at 60 µM ([3]; Homo sapiens, HEK293, 24 h, 24 h, Conc. 60 μM, read-out: Max. Activity (%)): 584%
Emax at 60 µM ([2]; Homo sapiens, 24 h, Con. 60 μM, read-out: Max. Activity (%)): 584%

O=C(NCCc1ccncc1)c1cc(-c2cccc(O)c2)on1 [Derivative (108), 5-(3-hydroxy-phenyl)-isoxazole-3-carboxylic acid (2-pyridin-4-yl-ethyl)-amide]
Emax at 15 µM ([3]; Homo sapiens, HEK293, 24 h, 24 h, Conc. 15 μM, read-out: Max. Activity (%)): 600%
Emax at 30 µM [3, 5]: < 20%
Emax at 15 µM ([2]; Homo sapiens, 24 h, Con. 15 μM, read-out: Max. Activity (%)): 600%

O=C(NCCc1cccnc1)c1cc(-c2cccc(O)c2)on1 [Derivative (110), 5-(3-hydroxy-phenyl)-isoxazole-3-carboxylic acid (2-pyridin-3-yl-ethyl)-amide]
Emax at 30 µM [3, 5]: < 20%
Emax at 30 µM [2, 4]: < 20%

O=C(NCCCn1ccnc1)c1cc(-c2ccccc2[N+](=O)[O-])on1 [Derivative (112), 5-(2-nitro-phenyl)-isoxazole-3-carboxylic acid (3-imidazol-1-yl-propyl)-amide]
Emax at 120 µM [3, 5]: 51%
Emax at 120 µM [2, 4]: 51%

O=C(NCCCn1ccnc1)c1cc(-c2cccc([N+](=O)[O-])c2)on1 [Derivative (113), 5-(3-nitro-phenyl)-isoxazole-3-carboxylic acid (3-imidazol-1-yl-propyl)-amide]
Emax at 120 µM [3, 5]: 46%
Emax at 120 µM [2, 4]: 46%

Nc1cccc(-c2cc(C(=O)NCCCn3ccnc3)no2)c1 [Derivative (119), 5-(3-amino-phenyl)-isoxazole-3-carboxylic acid (3-imidazol-1-yl-propyl)-amide]
Emax at 30 µM [3, 5]: < 20%
Emax at 120 µM [3, 5]: 43%
Emax at 120 µM [2, 4]: 43%

O=C(NCCc1ccc(O)cc1)c1cc(-c2cccs2)on1 [Derivative (141), 5-thiophen-2-yl-isoxazole-3-carboxylic acid [2-(4-hydroxy-phenyl)-ethyl]-amide]
activity at 11 µM [1]: 790%
Emax at 120 µM [2, 4]: 519%

Cn1cccc1-c1cc(C(=O)NCCCn2ccnc2)no1 [Derivative (149), 5-(1-methyl-1H-pyrrol-2-yl)-isoxazole-3-carboxylic acid (3-imidazol-1-yl-propyl)-amide]
activity at 11 µM [1]: 275%
Emax at 30 µM [2, 4]: 70%

Cn1cccc1-c1cc(C(=O)NCCCn2cncn2)no1 [Derivative (150)]
activity at 11 µM [1]: 328%
Emax at 30 µM [2, 4]: 78%

Cn1cccc1-c1cc(C(=O)NCCn2cncn2)no1 [Derivative (151), 5-(1-methyl-1H-pyrrol-2-yl)-isoxazole-3-carboxylic acid (2-[1,2,4]triazol-1-yl-ethyl)-amide]
activity at 11 µM [1]: 151%
Emax at 30 µM [2, 4]: 41%

O=C(NCCn1cncn1)c1cc(-c2ccoc2)on1 [Derivative (154), 5-furan-3-yl-isoxazole-3-carboxylic acid (2-[1,2,4]-triazol-1-yl-ethyl)-amide]
activity at 11 µM [1]: 310%
Emax at 120 µM [2, 4]: 113%

O=C(NCCn1ccnc1)c1cc(-c2ccsc2)on1 [Derivative (157), 5-thiophen-3-yl-isoxazole-3-carboxylic acid (2-imidazol-1-yl-ethyl)-amide]
activity at 11 µM [1]: 809%
Emax at 30 µM [2, 4]: 871%

O=C(NCCCn1cncn1)c1cc(-c2ccc[nH]2)on1 [Derivative (159), 5-(1H-pyrrol-2-yl)-isoxazole-3-carboxylic acid (3-[1,2,4]triazol-1-yl-propyl)-amide]
activity at 11 µM [1]: 130%
Emax at 30 µM [2, 4]: 128%

O=C(NCCCn1ccnc1)c1cc(-c2ccc[nH]2)on1 [Derivative (160), 5-(1H-pyrrol-2-yl)-isoxazole-3-carboxylic acid (3-imidazol-1-yl-propyl)-amide]
activity at 11 µM [1]: 158%
Emax at 120 µM [2, 4]: 146%

O=C(NCCCn1ccnc1)c1cc(N2CCOCC2)on1 [Derivative (161), 5-morpholin-4-yl-isoxazole-3-carboxylic acid (3-imidazol-1-yl-propyl)-amide]
activity at 11 µM [1]: 89%
Emax at 120 µM [2, 4]: 33%

O=C(NCCCn1cncn1)c1cc(N2CCOCC2)on1 [Derivative (162), 5-morpholin-4-yl-isoxazole-3-carboxylic acid (3-[1,2,4]-triazol-1-yl-propyl)-amide]
activity at 11 µM [1]: 60%
Emax at 10 µM [2, 4]: 30%

O=C(NCCn1cncn1)c1cc(N2CCOCC2)on1 [Derivative (163), 5-morpholin-4-yl-isoxazole-3-carboxylic acid (2-[1,2,4]-triazol-1-yl-ethyl)-amide]
activity at 11 µM [1]: 166%
Emax at 120 µM [2, 4]: 34%

O=C(NCCCn1ccnc1)c1cc(C2CCCCC2)on1 [Derivative (164), 5-cyclohexyl-3-isoxazole-3-carboxylic acid (3-imidazol-1-yl-propyl)-amide]
activity at 11 µM [1]: 241%
Emax at 120 µM [2, 4]: 55%

O=C(NCCCn1cncn1)c1cc(C2CCCCC2)on1 [Derivative (165), 5-cyclohexyl-3-isoxazole-3-carboxylic acid (3-[1,2,4]-triazol-1-yl-propyl)-amide]
activity at 11 µM [1]: 92%
Emax at 30 µM [2, 4]: 45%

CC(C)(C)c1cc(C(=O)NCCCn2ccnc2)no1 [Derivative (167), 5-tert-butyl-3-isoxazole-3-carboxylic acid (3-imidazol-1-yl-propyl)-amide]
activity at 11 µM [1]: 276%
Emax at 120 µM [2, 4]: 37%

CC(C)(C)c1cc(C(=O)NCCCn2cncn2)no1 [Derivative (168), 5-tert-butyl-3-isoxazole-3-carboxylic acid (3-[1,2,4]-triazol-1-yl-propyl)-amide]
activity at 11 µM [1]: 97%
Emax at 10 µM [2, 4]: 40%

[Cl-].[Li+] [LiCl, lithium chloride, reference compound]
Max. Activity (%) ([3]; Conc. 20000 μM): 100%
Max. Activity (%) ([2]; Con. 20000 μM): 100%
